Here are results for seven compounds from patent US20260317324A1, “BIFUNCTIONAL COMPOUNDS FOR DEGRADING BRAF VIA UBIQUITIN PROTEOSOME PATHWAY” (Nurix Therapeutics, Inc., priority 2023, published 2026).

The test has as its target T1, BRAF V600E (Homo sapiens, UniProt P15056, V600E).
T1 construct: endogenous C-terminal HiBiT fusion tag on BRAF V600E allele; endogenous in cells; host or cells: A375 clone 1F10 (CRISPR-Cas9 knock-in of the HiBiT tag; parental A375 from ATCC)
The test can be described thus: BRAF HiBiT degradation assay, C-terminal HiBiT-tagged BRAF V600E A375 cells (clone 1F10), Nano-Glo HiBiT Lytic assay. Conditions: A375 (BRAF V600E); for DC50: DC50 at 50%: fitted conc. at Y=50; for Dmax: A-375, percentage protein degraded at maximal compound effect relative to DMSO. In kind it is cell-based. The method in brief:
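A375 cells with CRISPR knock-in C-terminal HiBiT on endogenous BRAF V600E (clone 1F10) were seeded and cultured 24 h at 37 °C, then dosed with an 11-point half-log series (1 μM to 0.01 nM, duplicate, 0.2% DMSO). Lytic HiBiT luminescence gave % protein remaining; DC50 was the fitted concentration at 50%.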
(With HiBiT, luminescence reflects the tagged protein that the partner subunit can reach.)

T1 sequence (P15056 whole entry V600E, the tested form may be a part): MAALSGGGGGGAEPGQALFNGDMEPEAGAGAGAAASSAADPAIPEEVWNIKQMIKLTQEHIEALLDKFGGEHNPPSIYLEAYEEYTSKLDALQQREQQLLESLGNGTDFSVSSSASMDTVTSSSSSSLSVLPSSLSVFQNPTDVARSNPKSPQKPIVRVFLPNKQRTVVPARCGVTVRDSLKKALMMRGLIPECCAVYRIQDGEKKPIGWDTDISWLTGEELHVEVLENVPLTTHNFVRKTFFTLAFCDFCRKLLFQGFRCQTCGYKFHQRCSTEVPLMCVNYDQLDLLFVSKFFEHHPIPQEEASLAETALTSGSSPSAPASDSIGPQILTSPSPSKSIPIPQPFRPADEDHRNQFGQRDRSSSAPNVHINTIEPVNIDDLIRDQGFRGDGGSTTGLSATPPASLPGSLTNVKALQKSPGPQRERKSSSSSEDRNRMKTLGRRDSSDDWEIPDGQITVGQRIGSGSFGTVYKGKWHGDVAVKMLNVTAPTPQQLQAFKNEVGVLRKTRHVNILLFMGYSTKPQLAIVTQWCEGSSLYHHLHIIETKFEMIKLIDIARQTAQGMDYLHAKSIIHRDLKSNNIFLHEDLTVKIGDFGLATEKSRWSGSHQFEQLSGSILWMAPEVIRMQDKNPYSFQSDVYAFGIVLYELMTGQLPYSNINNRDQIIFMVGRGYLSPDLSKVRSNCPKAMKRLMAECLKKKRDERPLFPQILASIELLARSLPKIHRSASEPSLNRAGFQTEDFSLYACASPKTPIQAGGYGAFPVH

With `CCCS(=O)(=O)Nc1cccc(-c2nc(C3CCN(C(=O)C4CCN(C(=O)C5CCN(c6ccc(C7CCC(=O)NC7=O)cc6)CC5)CC4)CC3)sc2-c2ccncn2)c1F` (racemic) [Compound 199, Rac-N-[3-(2-{1-[1-(1-{4-[(3R)-2,6-dioxopiperidin-3-yl]phenyl}piperidine-4-carbonyl)piperidine-4-carbonyl]piperidin-4-yl}-5-(pyrimidin-4-yl)-1,3-thiazol-4-yl)-2-fluorophenyl]propane-1-sulfonamide], the half-maximal degradation concentration (DC50) is < 0.01 µM and the Dmax was > 70%.

Compound `CCCS(=O)(=O)Nc1cccc(-c2cn(-c3ccc(N4CCN(C(=O)C5CCN(c6ccc(C7CCC(=O)NC7=O)cc6)CC5)CC4)cc3)nc2-c2ccncc2)c1F` (racemic) [Compound 26, Rac-N-[3-(1-{4-[4-(1-{4-[(3R)-2,6-dioxopiperidin-3-yl]phenyl}piperidine-4-carbonyl)piperazin-1-yl]phenyl}-3-(pyridin-4-yl)-1H-pyrazol-4-yl)-2-fluorophenyl]propane-1-sulfonamide] returned a half-maximal degradation concentration (DC50) of 0.05 to 0.5 µM and a Dmax of 30 to 70%.

Turning to `CCCS(=O)(=O)Nc1cccc(-c2nc(C3CCN(C(=O)[C@H]4CC[C@H](CN5CCc6cc(C7CCC(=O)NC7=O)ccc6C5)CC4)CC3)sc2-c2ccnc(N)n2)c1F` (mixture of isomers) [Compound 222, N-{3-[5-(2-aminopyrimidin-4-yl)-2-{1-[(1r,4r)-4-({6-[(3RS)-2,6-dioxopiperidin-3-yl]-1,2,3,4-tetrahydroisoquinolin-2-yl}methyl)cyclohexanecarbonyl]piperidin-4-yl}-1,3-thiazol-4-yl]-2-fluorophenyl}propane-1-sulfonamide], the 50% degradation concentration (DC50) is > 0.5 µM and the Dmax was in the range of 30 to 70%.

Regarding `CCCS(=O)(=O)Nc1cccc(-c2nc(C(C)(C)C)sc2-c2ccnc(Nc3cccc(OC4CCN(C(=O)C5CCN(c6cccc(C7CCC(=O)NC7=O)c6)CC5)CC4)c3)n2)c1F` (racemic) [Compound 99, Rac-N-[3-(2-tert-butyl-5-{2-[(3-{[1-(1-{3-[(3R)-2,6-dioxopiperidin-3-yl]phenyl}piperidine-4-carbonyl)piperidin-4-yl]oxy}phenyl)amino]pyrimidin-4-yl}-1,3-thiazol-4-yl)-2-fluorophenyl]propane-1-sulfonamide], the DC50 lay in the range of 0.01 to 0.05 µM and the Dmax is 30 to 70%.

Compound `CCCS(=O)(=O)Nc1cccc(-c2nc(C(C)(C)C)sc2-c2ccnc(Nc3cccc(OC4CCN(C(=O)CN5CCN(c6cc(C7CCC(=O)NC7=O)ccn6)CC5)CC4)c3)n2)c1F` (racemic) [Compound 93, Rac-N-{3-[2-tert-butyl-5-(2-{[3-({1-[2-(4-{4-[(3R)-2,6-dioxopiperidin-3-yl]pyridin-2-yl}piperazin-1-yl)acetyl]piperidin-4-yl}oxy)phenyl]amino}pyrimidin-4-yl)-1,3-thiazol-4-yl]-2-fluorophenyl}propane-1-sulfonamide] returned a DC50 of 0.01 to 0.05 µM and a Dmax of 30 to 70%.

The compound `CCCS(=O)(=O)Nc1cccc(-c2nc(C(C)(C)C)sc2-c2ccnc(N[C@H]3CC[C@H](CN4CCN(CC5CCN(c6ccc([C@@H]7CCC(=O)NC7=O)cc6)CC5)CC4)CC3)n2)c1F` [Compound 139, N-{3-[2-tert-butyl-5-(2-{[(1r,4r)-4-({4-[(1-{4-[(3S)-2,6-dioxopiperidin-3-yl]phenyl}piperidin-4-yl)methyl]piperazin-1-yl}methyl)cyclohexyl]amino}pyrimidin-4-yl)-1,3-thiazol-4-yl]-2-fluorophenyl}propane-1-sulfonamide] returned a DC50 of 0.01 to 0.05 µM and a Dmax of 30 to 70%.

Compound `CCCS(=O)(=O)Nc1cccc(-c2nc(C3CCN(CC4CCN(C(=O)CN5CCc6cc(C7CCC(=O)NC7=O)ccc6C5)CC4)CC3)sc2-c2ccnc(N)n2)c1F` (racemic) [Compound 226, Rac-N-{3-[5-(2-aminopyrimidin-4-yl)-2-(1-{[1-(2-{6-[(3R)-2,6-dioxopiperidin-3-yl]-1,2,3,4-tetrahydroisoquinolin-2-yl}acetyl)piperidin-4-yl]methyl}piperidin-4-yl)-1,3-thiazol-4-yl]-2-fluorophenyl}propane-1-sulfonamide] yielded a DC50 of 0.05 to 0.5 µM and a Dmax of 30 to 70%.

In general, DC50 refers to the midpoint of the concentration-degradation curve. High values mean a less potent degrader, low ones a more potent degrader. One may read the Dmax as the largest share of the target that was removed. The low end stands for shallow degradation, the high end for deep degradation.
